# Measurements taken from article PMC7501296, “Rapid and direct control of target protein levels with VHL-recruiting dTAG molecules” (Nature Communications, 2020).
# Values joined by “and” are separate entries in the source; they are usually repeats but may differ in a detail not shown here. Equal entries are not always repeated.
# Columns and labels:
# Format in all cases: cell-based
# [1] = test system: PATU-8902 LACZ-FKBP12^F36V clone; assay: Antiproliferation, PATU-8902 LACZ-FKBP12F36V clone, 3D-spheroid (CellTiter-Glo); settings: 120 h
# In short: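 Viability of cells grown as ultra-low adherent 3D-spheroids was determined with the CellTiter-Glo reagent (Promega). Luminescence was read on either an Envision 2104 plate reader (PerkinElmer) or a Fluostar Omega Reader (BMG Labtech). The resulting data were analyzed with GraphPad PRISM v8.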
# [2] = test system: EWS502 FKBP12^F36V-GFP cells; assay: Relative growth of EWS502 FKBP12F36V-GFP cells (CellTiter-Glo)
# Procedure: Cell viability was assayed in 2D-adherent or ultra-low adherent 3D-spheroids using CellTiter-Glo (Promega)[6],[15]. Luminescence was measured on an Envision 2104 plate reader (PerkinElmer) and Fluostar Omega Reader (BMG Labtech) and data was analyzed using GraphPad PRISM v8. Synergy assessments were performed using CellTiter-Glo (Promega) with the following modifications to the protocol described in the ref. [34]. In brief, EWS502 cells were plated at 1000 cells per well in 50 µL of appropriate media in 384-well white culture plates (Corning) allowed to adhere overnight, and 100 nL of compounds were added using a Janus Workstation pin tool (PerkinElmer) for 72 h. Cell viability was measured by addition of 10 µL of CellTiter-glo (Promega), followed by incubation for 15 minutes at room temperature. Luminescence was measured on an Envision 2104 plate reader (PerkinElmer) and data was analyzed using GraphPad PRISM v8.
# FKBP12^F36V-KRAS^G12V = target: T1, FKBP12^F36V-KRAS^G12V (Homo sapiens, UniProt P01116+P62942, F37V/G12V); assay: Immunoblot of PATU-8902 FKBP12F36V-KRASG12V; KRAS-/- clone; settings: time-course
# T1 construct: KRAS G12V (fusion partner, same polypeptide); expressed in transfected cells
# Procedure: PATU-8902 LACZ-FKBP12^F36V and FKBP12^F36V-KRAS^G12V; KRAS^−/− cells and 293T cells were lysed with RIPA buffer supplemented with cOmplete protease inhibitors (Roche), PhosSTOP phosphatase inhibitors (Roche), and 0.1% benzonase (Novagen). Proteins were separated using NuPAGE Bolt^TM Bis–Tris gels (Thermo Fisher Scientific) and transferred to nitrocellulose membranes, which were blocked with Odyssey Blocking Buffer (LI-COR) and incubated with primary antibodies overnight. Membranes were washed three times with TBS-T, incubated with the appropriate fluorescently labeled infrared secondary antibodies, washed again three times with TBS-T, and assessed using an Odyssey CLx Imager (LI-COR)[6],[15]. EWS502 cells were lysed with Cell Lysis Buffer (Cell Signaling Technology) supplemented with cOmplete protease inhibitors (Roche). Proteins were separated using SDS-PAGE gels and transferred to PVDF membranes, which were blocked with 5% milk in TBS-T and incubated with primary antibodies overnight. Membranes were washed five times with TBS-T, incubated with the appropriate horseradish peroxidase-conjugated secondary antibodies, washed again five times with TBS-T, and imaged. The following primary antibodies were employed in this study: HA (Cell Signaling Technology #3724 and #2367, dilution at 1:1000), phospho-ERK1/2 T202/Y204 (Cell Signaling Technology #4370, dilution at 1:1000), ERK1/2 (Cell Signaling Technology #4696, dilution at 1:1000), phospho-AKT S473 (Cell Signaling Technology #4060, dilution at 1:1000), AKT (Cell Signaling Technology #2920, dilution at 1:1000), FKBP12 (Abcam #ab24373, dilution at 1:1000), GFP (Cell Signaling Technology #2555, dilution at 1:1000), FLI (Abcam #ab15289, dilution at 1:2000), NKX2-2 (Abcam #ab187375, dilution at 1:1000), GAPDH (Cell Signaling Technology #2118, dilution at 1:3000), Vinculin (Cell Signaling Technology #13901, dilution at 1:3000), β-Actin (Cell Signaling Technology #58169, dilution at 1:3000), and α-Tubulin (Cell Signaling Technology #3873, dilution at 1:5000). Species-specific fluorescently labeled infrared secondary antibodies including IRDye 680LT anti-Mouse IgG (LI-COR #926-68020, dilution at 1:5000), IRDye 800CW anti-Mouse IgG (LI-COR #926-32210, dilution at 1:5000), IRDye 680LT anti-Rabbit IgG (LI-COR #926-68021, dilution at 1:5000), and IRDye 800CW anti-Rabbit IgG (LI-COR #926-32211, dilution at 1:5000) and peroxidase-linked secondary antibodies including anti-Mouse IgG (Thermo Fisher Scientific #45000680, dilution at 1:5000) and anti-Rabbit IgG (Thermo Fisher Scientific #45000682, dilution at 1:5000) were employed as appropriate.
# [3] = test system: PATU-8902 FKBP12^F36V-KRAS^G12V; KRAS^-/- clone; assay: Antiproliferation, PATU-8902 FKBP12F36V-KRASG12V; KRAS-/- clone, 2D-monolayer (CellTiter-Glo)
# [4] = test system: PATU-8902 FKBP12^F36V-KRAS^G12V; KRAS^-/- clone; assay: Antiproliferation, PATU-8902 FKBP12F36V-KRASG12V; KRAS-/- clone, 3D-spheroid (CellTiter-Glo); settings: 120 h; for DMSO-normalized antiproliferation: FKBP12F36V-KRASG12V, KRAS-/-, 3D-spheroid
# In short: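 Viability of cells grown as ultra-low adherent 3D-spheroids was determined with CellTiter-Glo (Promega). Luminescence readings were taken on an Envision 2104 plate reader (PerkinElmer) and a Fluostar Omega Reader (BMG Labtech), and the resulting data were processed in GraphPad PRISM v8 to assess effects on cell proliferation.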
# [5] = log10[compound] (M) -5.69897, single replicates
# [6] = log10[compound] (M) -6.19897, single replicates
# [7] = log10[compound] (M) -6.69897, single replicates
# [8] = log10[compound] (M) -7.19897, single replicates
# [9] = log10[compound] (M) -7.69897, single replicates
# T1 sequence (P62942+P01116 fused P62942:F37V/P01116:G12V): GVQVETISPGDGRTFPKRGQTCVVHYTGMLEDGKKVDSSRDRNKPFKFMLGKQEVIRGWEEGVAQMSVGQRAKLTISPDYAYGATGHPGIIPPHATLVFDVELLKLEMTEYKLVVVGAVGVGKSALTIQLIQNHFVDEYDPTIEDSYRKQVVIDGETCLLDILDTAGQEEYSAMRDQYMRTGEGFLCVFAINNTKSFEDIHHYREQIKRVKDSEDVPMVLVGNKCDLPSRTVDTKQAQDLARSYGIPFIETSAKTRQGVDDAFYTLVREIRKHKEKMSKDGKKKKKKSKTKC
structure (smiles),measurement,setting,value
CC[C@H](C(=O)N1CCCC[C@H]1C(=O)O[C@H](CCc1ccc(OC)c(OC)c1)c1ccccc1OCC(=O)NCCCCCCC(=O)N[C@H](C(=O)N1C[C@H](O)C[C@H]1C(=O)N[C@@H](C)c1ccc(-c2scnc2C)cc1)C(C)(C)C)c1cc(OC)c(OC)c(OC)c1 [dTAG^V-1],DMSO-normalized antiproliferation,[1]; [5],79.9207 and 69.7647 and 81.656 and 63.0972
same,DMSO-normalized antiproliferation,[1]; [6],90.8255 and 93.4576 and 97.8876 and 88.6015
same,DMSO-normalized antiproliferation,[1]; [7],116.805 and 103.649 and 110.913 and 111.967
same,DMSO-normalized antiproliferation,[1]; [8],115.092 and 118.114 and 123.495 and 124.235
same,DMSO-normalized antiproliferation,[1]; [9],125.383 and 125.544 and 131.956 and 99.7395
same,DMSO-normalized antiproliferation,"[1]; log10[compound] (M) -8.19897, single replicates",91.6326 and 122.778 and 124.271 and 121.832
same,DMSO-normalized antiproliferation,"[1]; log10[compound] (M) -8.69897, single replicates",107.048 and 111.088 and 112.061 and 114.671
same,DMSO-normalized antiproliferation,"[1]; log10[compound] (M) -9.19897, single replicates",123.177 and 113.909 and 103.784 and 113.953
same,DMSO-normalized antiproliferation,"[1]; log10[compound] (M) -9.69897, single replicates",118.276 and 100.412 and 114.859 and 101.744
same,DMSO-normalized antiproliferation,"[1]; log10[compound] (M) -10.199, single replicates",96.4797 and 95.686 and 104.084 and 100.448
same,Relative growth (luminescence values relative to day 0),"[2]; day 0, technical replicates",1.01 and 0.9846 and 0.9416 and 1.081 and 0.9895 and 0.8796 and 1.056 and 1.058
same,Relative growth (luminescence values relative to day 0),"[2]; day 3, technical replicates",7.436 and 7.522 and 7.571 and 8.146 and 7.791 and 7.539 and 7.5229 and 8.295
same,Relative growth (luminescence values relative to day 0),"[2]; day 5, technical replicates",12.9905 and 13.8226 (2×) and 13.4717 and 14.0465 and 14.5379 and 14.3196 and 15.9343
same,Relative growth (luminescence values relative to day 0),"[2]; day 7, technical replicates",19.3543 and 18.2942 and 18.0829 and 20.64 and 18.2038 and 18.0695 and 17.6427 and 20.3483
same,"KRASG12V degradation, immunoblot",FKBP12^F36V-KRAS^G12V,rapid KRAS^G12V degradation
same,DMSO-normalized antiproliferation,[3]; log10[compound] (M) -4.69897,20.6105 and 17.3638 and 20.4315 and 22.7846
same,DMSO-normalized antiproliferation,[3]; log10[compound] (M) -5.19897,21.3993 and 17.4773 and 18.2 and 18.6602
same,DMSO-normalized antiproliferation,[3]; log10[compound] (M) -5.69897,16.8112 and 15.7934 and 16.8516 and 16.7935
same,DMSO-normalized antiproliferation,"[3]; log10[compound] (M) -5.69897, replicate values",4.6597 and 4.418 and 4.149 and 3.87
same,DMSO-normalized antiproliferation,[3]; log10[compound] (M) -6.19897,20.0987 and 17.9241 and 20.6309 and 19.478
same,DMSO-normalized antiproliferation,"[3]; log10[compound] (M) -6.19897, replicate values",5.446 and 5.94 and 6.406 and 4.294
same,DMSO-normalized antiproliferation,[3]; log10[compound] (M) -6.69897,25.9066 and 20.9075 and 21.5913 and 21.1711
same,DMSO-normalized antiproliferation,"[3]; log10[compound] (M) -6.69897, replicate values",8.244 and 7.637 and 8.006 and 6.772
same,DMSO-normalized antiproliferation,[3]; log10[compound] (M) -7.19897,27.2696 and 25.1897 and 32.757 and 26.1725
same,DMSO-normalized antiproliferation,"[3]; log10[compound] (M) -7.19897, replicate values",9.134 and 8.1 and 7.928 and 7.914
same,DMSO-normalized antiproliferation,[3]; log10[compound] (M) -7.69897,32.5281 and 28.8466 and 33.2484 and 29.8055
same,DMSO-normalized antiproliferation,"[3]; log10[compound] (M) -7.69897, replicate values",23.295 and 23.6499 and 25.1438 and 20.7638
same,DMSO-normalized antiproliferation,[3]; log10[compound] (M) -8.19897,71.5602 and 70.7086 and 72.3533 and 72.4741
same,DMSO-normalized antiproliferation,"[3]; log10[compound] (M) -8.19897, replicate values",58.7893 and 63.6738 and 62.8905 and 55.3819
same,DMSO-normalized antiproliferation,[3]; log10[compound] (M) -8.69897,90.0484 and 84.5598 and 93.7922 and 91.6223
same,DMSO-normalized antiproliferation,"[3]; log10[compound] (M) -8.69897, replicate values",97.0333 and 109.013 and 119.265 and 75.6713
same,DMSO-normalized antiproliferation,[3]; log10[compound] (M) -9.19897,99.7014 and 102.892 and 91.8028 and 106.019
same,DMSO-normalized antiproliferation,"[3]; log10[compound] (M) -9.19897, replicate values",104.958 and 110.142 and 126.275 and 110.446
same,DMSO-normalized antiproliferation,"[3]; log10[compound] (M) -9.69897, replicate values",77.7582 and 88.137 and 113.958 and 92.6055
same,DMSO-normalized antiproliferation,"[3]; log10[compound] (M) -10.199, replicate values",96.7023 and 108.197 and 96.9121 and 90.9372
same,Cell proliferation upon FKBP12F36V-KRASG12V degradation,[4]; 2D-monolayer and 3D-spheroid cultures,diminished cell proliferation
same,DMSO-normalized antiproliferation,[4]; [5],14.2222 and 15.5085 and 18.1313 and 19.3564
same,DMSO-normalized antiproliferation,[4]; [6],19.4455 and 15.9874 and 15.9651 and 15.7814
same,DMSO-normalized antiproliferation,[4]; [7],16.8171 and 16.5888 and 12.056 and 15.8705
same,DMSO-normalized antiproliferation,[4]; [8],11.0759 and 11.8444 and 17.6524 and 14.6677
same,DMSO-normalized antiproliferation,[4]; [9],20.7875 and 17.3072 and 22.4693 and 16.2436
